Experimental data as given in PubChem BioAssay (NCI).
“And” between values parts separate entries of the source, which are not always exact repeats. Equal entries are not always repeated.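 How tested: cells in 96-well plates exposed to compound for 48 hours at five concentrations. Abbreviation: GI50, concentration required for 50% inhibition of growth. Definition used: TGI = concentration required for complete inhibition of growth.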

Assays:
Assay in all cases: inhibition of tumour cell growth, NCI panel, 48 h
NCI-H23 lung = system: NCI-H23 lung
LOX IMVI melanoma = system: LOX IMVI melanoma
CAKI-1 renal = system: CAKI-1 renal
A498 renal = system: A498 renal
SNB-75 CNS = system: SNB-75 CNS
MDA-MB-231 breast = system: MDA-MB-231 breast
HCT-15 colon = system: HCT-15 colon
SK-MEL-5 melanoma = system: SK-MEL-5 melanoma
NCI/ADR-RES ovarian = system: NCI/ADR-RES ovarian
ACHN renal = system: ACHN renal

Structure (SMILES) | TGI (NCI-H23 lung) [µM] | TGI (LOX IMVI melanoma) [µM] | TGI (CAKI-1 renal) [µM] | TGI (A498 renal) [µM] | TGI (SNB-75 CNS) [µM] | TGI (MDA-MB-231 breast) [µM] | TGI (HCT-15 colon) [µM] | TGI (SK-MEL-5 melanoma) | TGI (NCI/ADR-RES ovarian) [µM] | TGI (ACHN renal) [µM] | GI50 (NCI-H23 lung) [µM] | GI50 (LOX IMVI melanoma) [µM] | GI50 (CAKI-1 renal) [µM] | GI50 (A498 renal) [µM] | GI50 (SNB-75 CNS) [µM] | GI50 (HCT-15 colon) [µM] | GI50 (SK-MEL-5 melanoma) [µM]
O=c1[nH]cnc2c1cnn2Cc1cnnn1COCCO | > 100 | > 100 | > 100 | > 100 | > 100 | > 100 | > 100 | > 100 µM | > 100 | > 100 | – | – | – | – | – | – | –
NC1=Nc2ccccc2Sc2cccc(F)c21 | > 100 | > 100 | > 100 | > 100 | > 100 | > 100 | > 100 | > 100 µM | > 100 | > 100 | – | – | – | – | – | – | –
CNC(=O)CNC(=O)N(C[C@@H]1CCCN1C(=O)[C@H](CC(C)C)NC(=O)OC(C)(C)C)C(C)C | > 100 | > 100 | > 100 | > 100 | > 100 | > 100 | > 100 | > 100 µM | > 100 | > 100 | – | – | – | – | – | – | –
Cc1nc2ccc(NC3OCC(O)C(O)C3O)cc2c(=O)n1-c1ccccc1 (configuration not stated) | > 100 | > 100 | > 100 | > 100 | > 100 | > 100 | > 100 | > 100 µM | > 100 | > 100 | – | – | – | – | – | – | –
COc1ccc([I+]c2ccc(OC)cc2)cc1 | > 100 | > 100 | > 100 | > 100 | > 100 | > 100 | > 100 | 20.7 µM and 6.76 µM | > 100 | > 100 | 4.85 | 6.05 | > 85.3 | 5.52 | 14.9 | > 100 | 1.8
COC(=O)c1ccccc1C1CN=NC12Cc1ccc3c(c1C2=O)CCC3 (configuration not stated) | > 100 | > 100 | > 100 | > 100 | > 100 | > 100 | > 100 | > 100 µM | > 100 | > 100 | – | – | – | – | – | – | –
COc1ccc2c(c1)/c(=C/C#N)c1c3ccccc3[n+](C)n21 | 45.4 | 28.6 | 47.3 | 13.9 | 9.21 | 64.4 | 59.8 | > 44.8 µM | > 100 | 32 | – | – | – | – | – | – | –
COc1cccc(CCNc2c(C#N)c3n(c4ccccc4[n+]3C)c3ncccc23)c1 | > 56.5 | 3.08 | > 100 | 57 | 12.8 | 6.89 | 3.74 | 28.8 µM | > 51 | 36.1 | – | – | – | – | – | – | –
COc1ccc(-c2oc3cc(O)c(OC)c(O)c3c(=O)c2O)cc1 | > 100 | > 78.6 | 65.3 | 22.3 | 63.2 | > 100 | 52.2 | 34 µM | 48.5 | 10.7 | – | – | – | – | – | – | –
COc1cc2c[n+](C)c3c4cc(OC)c(OCc5ccccc5)cc4c(OCc4ccccc4)cc3c2cc1OC | 20.5 | 18 | > 77.3 | > 100 | 22.6 | 18.4 | > 100 | 6.77 µM | > 100 | > 100 | – | – | – | – | – | – | –
CC(=O)NC(C)(C)C1CCC(C)CC1 (configuration not stated) | > 100 | > 100 | > 100 | > 100 | > 100 | > 100 | > 100 | > 100 µM | > 100 | > 100 | – | – | – | – | – | – | –
C=CCOC(=O)Cn1ccc(=O)[nH]c1=O | > 100 | > 100 | > 100 | > 100 | > 100 | > 100 | > 100 | > 100 µM | > 100 | > 100 | – | – | – | – | – | – | –
Cn1cc2c3ccccc3nc-2c2ccccc21 | 3.15 | 4.36 | 7.79 | 3.27 | 6.6 | 5.73 | 4.94 | 3.64 µM | 4.24 | 5.81 | – | – | – | – | – | – | –
CC1CN(CCO)CCN1c1ccccc1 (configuration not stated) | > 100 | > 100 | > 100 | > 100 | > 100 | > 100 | > 100 | > 100 µM | > 100 | > 100 | – | – | – | – | – | – | –
O=c1/c(=C/c2ccccn2)sc2nc3cc4c(cc3n12)OCCO4 | > 100 | > 100 | > 100 | > 100 | > 100 | > 100 | > 100 | > 100 µM | > 100 | > 100 | – | – | – | – | – | – | –
Cc1cc(C)c2c(n1)S(=O)(=O)N(CCCN1CCN(c3cccc(Cl)c3)CC1)/C(=C(\O)c1ccc(Br)cc1)C2=O | > 100 | > 100 | 49.4 | > 100 | 28.3 | > 100 | > 100 | 39.7 µM | > 100 | > 100 | – | – | – | – | – | – | –
O=c1c2c3c(sc2nc2n1NC=NN2)CCCC3 | > 62.6 | 4.88 | 33.8 | > 89.4 | 59.1 | 19.1 | 37.5 | 31.7 µM | 65.5 | 30.3 | – | – | – | – | – | – | –
COc1ccc(-c2nnc3n(C)c4ccccc4n3c2=O)cc1 | > 100 | > 100 | > 100 | > 100 | 60.4 | 56.2 | > 100 | > 100 µM | > 100 | > 100 | – | – | – | – | – | – | –
COc1ccccc1C(=O)OCC1CCCN2CCCCC12 (configuration not stated) | > 100 | 34.8 | > 100 | > 100 | 63.4 | 61.6 | > 100 | > 100 µM | > 100 | > 100 | – | – | – | – | – | – | –
CN(C)CC1CCC/C(=C\c2ccc(OC(=O)/C=C/c3ccc(Cl)cc3)cc2)C1=O (configuration not stated) | 14.1 | 9.39 | 5.12 | 16.3 | 24.9 | 21 | 6.91 | 9.46 µM | 23 | 5.73 | – | – | – | – | – | – | –
O=C(CC(C(=O)c1cccs1)c1ccsc1)c1ccc(Cl)s1 (configuration not stated) | > 100 | > 100 | > 100 | > 100 | > 100 | > 100 | > 100 | > 100 µM | > 100 | > 100 | – | – | – | – | – | – | –
C(=C/c1nnnn1-c1ccccc1)/Nc1ccccc1 | 79.2 | > 100 | > 100 | > 100 | > 100 | > 100 | 44.2 | 27.7 µM | 80.2 | > 100 | – | – | – | – | – | – | –
C=C1CCOC2(C(O)C(C)(O)CO)NC(=O)C1(O)NC2=O (configuration not stated) | > 100 | > 100 | > 100 | > 100 | > 100 | > 100 | > 100 | > 100 µM | > 100 | > 100 | – | – | – | – | – | – | –
Cc1cc(O)c2c(c1)C(C1c3cccc(O)c3C(=O)c3c(O)cc(C)cc31)c1cccc(O)c1C2=O (configuration not stated) | 4.65 | 11.4 | 7.06 | 4.53 | 0.855 | 1.73 | 12.3 | 0.557 µM | 9.2 | 3.56 | – | – | – | – | – | – | –
CCC(Nc1ncnc2nc[nH]c12)C(=O)O (configuration not stated) | > 100 | > 100 | > 100 | > 100 | > 100 | > 100 | > 100 | > 100 µM | > 100 | > 100 | – | – | – | – | – | – | –
N#CC1=C(N)N(/N=C/c2ccco2)C(c2ccco2)C1(C#N)C#N (configuration not stated) | 35.8 | 28.2 | 37.9 | 29.9 | 36.6 | 38.6 | 38.8 | 29.3 µM | 61.2 | 30.2 | – | – | – | – | – | – | –
COC(=O)C(=O)C(C(=O)OC)C(=O)C(=O)Nc1c(Cl)cc([N+](=O)[O-])cc1Cl (configuration not stated) | > 100 | > 100 | > 100 | > 100 | > 100 | > 100 | > 100 | > 100 µM | > 100 | > 100 | – | – | – | – | – | – | –
CN(C)S(=O)(=O)c1nc(Cl)c2[nH]cnc2n1 | > 100 | > 100 | > 100 | > 100 | > 100 | > 100 | > 100 | > 100 µM | > 100 | > 100 | – | – | – | – | – | – | –
